These results are taken from US9365566B2 (Takeda Pharmaceutical Company Limited, priority 2012, dated 2016).

The experiment deals with T1, human BTK (Homo sapiens, UniProt Q06187).
T1 construct: GST (Glutathione-S-Transferase) (cleaved yes); made in house; host or cells: Spodoptera frugiperda Sf9 cells (baculovirus, Bac-to-Bac)
T1 sequence (Q06187 382-659): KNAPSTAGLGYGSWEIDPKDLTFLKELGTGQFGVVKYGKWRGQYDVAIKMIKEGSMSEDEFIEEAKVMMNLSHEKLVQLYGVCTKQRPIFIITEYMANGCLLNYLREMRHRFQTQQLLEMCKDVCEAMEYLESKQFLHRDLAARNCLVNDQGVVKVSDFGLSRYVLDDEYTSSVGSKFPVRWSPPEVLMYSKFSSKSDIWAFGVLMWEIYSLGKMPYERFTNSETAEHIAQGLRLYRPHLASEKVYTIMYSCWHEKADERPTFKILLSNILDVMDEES
Description: BTK inhibition assay: BTK-mediated phosphorylation of FAM-labeled substrate 5-FAM-EEPLYWSFPAKKK-NH2 (Caliper LC-3000). Type of experiment: biochemical. Conditions: pIC50 = -log(IC50), IC50 molar; residues 382 to 659 of human BTK; incubated at room temperature for 60 minutes; larger values represent higher potency.
In general, IC50 refers to the concentration needed to halve the response being measured. A lower IC50 goes with greater potency. On to `NC(=O)c1nnc2c(-c3ccc4nc(-c5cn6ccccc6n5)[nH]c4c3)cccc2c1N` [Example 75, 4-amino-8-(2-(imidazo[1,2-a]pyridin-2-yl)-1H-benzo[d]imidazol-6-yl)cinnoline-3-carboxamide], for which inhibition was half-maximal at 126 nM (IC50).
Consider `COc1cc2[nH]ncc2cc1-c1ccc(F)c2c(N)c(C(N)=O)nnc12` [Example 109, 4-amino-5-fluoro-8-(6-methoxy-1H-indazol-5-yl)cinnoline-3-carboxamide], for which the IC50 was 2 nM.
For `NC(=O)c1nnc2c(-c3ccc4nc[nH]c4c3)cccc2c1N` [Example 4, 4-amino-8-(1H-benzo[d]imidazol-6-yl)cinnoline-3-carboxamide] the value was 79.4 nM.
In turn, `Cc1ccc2c(N)c(C(N)=O)nnc2c1-c1ccc2[nH]nc(C)c2c1` [Example 50, 4-amino-7-methyl-8-(3-methyl-1H-indazol-5-yl)cinnoline-3-carboxamide] had an IC50 of 100 nM.
For `Cc1ccc2c(N)c(C(N)=O)nnc2c1-c1ccc2ncn(CCC#N)c2c1` [Example 133, 4-amino-8-(1-(2-cyanoethyl)-1H-benzo[d]imidazol-6-yl)-7-methylcinnoline-3-carboxamide] the value was 501 nM; for `Cc1cc(F)c2c(N)c(C(N)=O)nnc2c1-c1ccc2cn[nH]c2c1` [Example 56, 4-amino-5-fluoro-8-(1H-indazol-6-yl)-7-methylcinnoline-3-carboxamide], 12.6 nM.
Turning to `CC(C)(C)Cc1nc2ccc(-c3cccc4c(N)c(C(N)=O)nnc34)cc2[nH]1` [Example 66, 4-amino-8-(2-neopentyl-1H-benzo[d]imidazol-6-yl)cinnoline-3-carboxamide], half-maximal inhibition (IC50) was put at 631 nM.
The compound `CN1CCc2cc(-c3cccc4c(N)c(C(N)=O)nnc34)ccc21` [Example 7, 4-amino-8-(1-methylindolin-5-yl)cinnoline-3-carboxamide] gave an IC50 of 5010 nM.
The compound `NC(=O)c1nnc2c(N3CCc4[nH]ncc4C3)cccc2c1N` [Example 86, 4-amino-8-(6,7-dihydro-1H-pyrazolo[4,3-c]pyridin-5(4H)-yl)cinnoline-3-carboxamide] had an IC50 of 2000 nM.
`Cc1ccc2c(N)c(C(N)=O)nnc2c1-c1cc(C)c2[nH]ncc2c1` [Example 33, 4-amino-7-methyl-8-(7-methyl-1H-indazol-5-yl)cinnoline-3-carboxamide] had an IC50 of 50.1 nM.
`Cc1ccc2c(N)c(C(N)=O)nnc2c1-c1ccc2ccncc2c1` [Example 57, 4-amino-8-(isoquinolin-7-yl)-7-methylcinnoline-3-carboxamide] gave an IC50 of 200 nM.
The same measure for `CN1Cc2cc(-c3cccc4c(N)c(C(N)=O)nnc34)ccc2C1=O` [Example 123, 4-amino-8-(2-methyl-1-oxoisoindolin-5-yl)cinnoline-3-carboxamide]: 200 nM; for `NC(=O)c1nnc2c(-c3ccc4nc(-c5cc(Cl)cc(Cl)c5)[nH]c4c3)cccc2c1N` [Example 67, 4-amino-8-(2-(3,5-dichlorophenyl)-1H-benzo[d]imidazol-6-yl)cinnoline-3-carboxamide]: 63.1 nM.
For `Cc1cc2cnn(C)c2cc1-c1cccc2c(N)c(C(N)=O)nnc12` [Example 44, 4-amino-8-(1,5-dimethyl-1H-indazol-6-yl)cinnoline-3-carboxamide] the value was 501 nM; for `NC(=O)c1nnc2c(-c3ccc4[nH]ccc4c3)cccc2c1N` [Example 27, 4-amino-8-(1H-indol-5-yl)cinnoline-3-carboxamide], 1580 nM.
Regarding `Cc1cc2cn[nH]c2cc1-c1cc(N2CCOCC2)cc2c(N)c(C(N)=O)nnc12` [Example 137, 4-amino-8-(5-methyl-1H-indazol-6-yl)-6-morpholinocinnoline-3-carboxamide], half-maximal inhibition (IC50) was put at 7.94 nM.
`Cc1cc(-c2cc3[nH]ncc3cc2C)c2nnc(C(N)=O)c(N)c2c1` [Example 64, 4-amino-6-methyl-8-(5-methyl-1H-indazol-6-yl)cinnoline-3-carboxamide] gave an IC50 of 10 nM.
In turn, `Cc1ccc2c(N)c(C(N)=O)nnc2c1-c1ccn2cncc2c1` [Example 114, 4-amino-8-(imidazo[1,5-a]pyridin-7-yl)-7-methylcinnoline-3-carboxamide] had an IC50 of 3.98 nM.
On to `Cc1cc2cn[nH]c2cc1-c1cc(F)cc2c(N)c(C(N)=O)nnc12` [Example 136, 4-amino-6-fluoro-8-(5-methyl-1H-indazol-6-yl)cinnoline-3-carboxamide], for which the 50% inhibitory concentration (IC50) was 10 nM.
For the compound `NC(=O)c1nnc2c(-c3ccc4[nH]c(=O)[nH]c4c3)cccc2c1N` [Example 14, 4-amino-8-(2-oxo-2,3-dihydro-1H-benzo[d]imidazol-5-yl)cinnoline-3-carboxamide], the IC50 is 631 nM.
`Cc1ccc2c(N)c(C(N)=O)nnc2c1-c1ccc2nc(-c3ccc(F)cc3)[nH]c2c1` [Example 120, 4-amino-8-(2-(4-fluorophenyl)-1H-benzo[d]imidazol-6-yl)-7-methylcinnoline-3-carboxamide] gave an IC50 of 25.1 nM.
In turn, `NC(=O)c1nnc2c(-c3ccc4nc(NCC5CCCC5)[nH]c4c3)cccc2c1N` [Example 93, 4-amino-8-(2-(cyclopentylmethylamino)-1H-benzo[d]imidazol-6-yl)cinnoline-3-carboxamide] showed an IC50 of 7.94 nM.
`CCn1cnc2ccc(-c3c(C)ccc4c(N)c(C(N)=O)nnc34)cc21` [Example 131, 4-amino-8-(1-ethyl-1H-benzo[d]imidazol-6-yl)-7-methylcinnoline-3-carboxamide] showed an IC50 of 100 nM.
On to `NC(=O)c1nnc2c(-c3ccc4nc(CC5CCCCC5)[nH]c4c3)cccc2c1N` [Example 78, 4-amino-8-(2-(cyclohexylmethyl)-1H-benzo[d]imidazol-6-yl)cinnoline-3-carboxamide], for which half-maximal inhibition (IC50) required 79.4 nM.
`NC(=O)c1nnc2c(-c3ccc4nc(C5CCCOC5)[nH]c4c3)cccc2c1N` (stereo not drawn) [Example 83, 4-amino-8-(2-(tetrahydro-2H-pyran-3-yl)-1H-benzo[d]imidazol-6-yl)cinnoline-3-carboxamide] gave an IC50 of 794 nM.
The compound `Cc1ccc2c(N)c(C(N)=O)nnc2c1-c1ccc2c(F)n[nH]c2c1` [Example 100, 4-amino-8-(3-fluoro-1H-indazol-6-yl)-7-methylcinnoline-3-carboxamide] gave an IC50 of 25.1 nM.
Compound `Cn1ncc2ccc(-c3cccc4c(N)c(C(N)=O)nnc34)cc21` [Example 1, 4-amino-8-(1-methyl-1H-indazol-6-yl)cinnoline-3-carboxam] had an IC50 of 1580 nM.
